Measured values: US20080161324A1, “Compositions and methods for treatment of viral diseases” (priority 2006, published 2008)
Counter-ions that a name gives are not always drawn. Like-named read-outs stand apart in the source and are kept apart here. Marks after values point to notes of the source that are not given here.

What was measured:
[1] = test system: Huh7 cells expressing a subgenomic RNA replicon of Con1 (genotype 1b) sequence origin; test: microbe, parasite or virus in culture; type: cell-based, HCV
[2] = in words; cited from earlier work
HER1-2 = conditions: selective HER1 inhibitor (vs. HER1-2); cited from earlier work
[3] = Hepatitis C virus, Huh-7, 48 h; read-out: IC25 (values noted with an asterisk)
[4] = Hepatitis C virus, Huh-7, 48 h; read-out: IC50
[5] = Table 1; inhibition of luciferase activity, 48 hours; read-out: IC50
[6] = Table 1; inhibition of luciferase activity, 48 hours

Manganese gluconate
IC50 ([1]; read-out: IC50): 24.7 µM

CCCC(=O)O[C@H]1CN2CC[C@H](O)[C@@H]2[C@@H](O)[C@@H]1O [Celgosivir]
IC25 [1, 3]: 6.25 µM

CO[C@H]1C[C@@H]2CC[C@@H](C)[C@@](O)(O2)C(=O)C(=O)N2CCCC[C@H]2C(=O)O[C@H]([C@H](C)C[C@@H]2CC[C@@H](O)[C@H](OC)C2)CC(=O)[C@H](C)/C=C(\C)[C@@H](O)[C@@H](OC)C(=O)[C@H](C)C[C@H](C)/C=C/C=C/C=C/1C [Sirolimus]
IC25 [1, 3]: 0.005 µM

Tunicamycin
IC50 ([1]; Table 2; inhibition of luciferase activity, 48 hours; read-out: IC50): 0.107 µM

CC(C)=CC[C@@H](O)C1=CC(=O)c2c(O)ccc(O)c2C1=O [Shikonin]
IC25 [1, 3]: 26.4 µM

Nc1ncnc2c1ncn2CCOCP(=O)(O)O [Adefovir (e.g., dipivoxil), Adefovir]
IC50 ([1]; Table 3; inhibition of luciferase activity, 48 hours; read-out: IC50): 0.319 µM

COc1ccc(C(=O)NCc2cccnc2)cc1C(=O)NCc1cccnc1 [Picotamide]
IC25 [1, 3]: 28.7 µM

CCCCOc1ccc(OCCCN2CCOCC2)cc1 [Pramoxine (e.g., hydrochloride), Pramoxine]
IC25 [1, 3]: 5.17 µM

O=C1[C@H](CC[C@H](O)c2ccc(F)cc2)[C@@H](c2ccc(O)cc2)N1c1ccc(F)cc1 [Ezetimibe]
IC50 [1, 4]: 4.2 µM

Beta Escin
IC50 [1, 5]: 4.27 µM

Gramicidin
IC50 [1, 5]: 0.017 µM

Chlorophyllin
IC50 [1, 5]: 1.3 µM

Cc1ccc(/N=C/N(C)/C=N/c2ccc(C)cc2C)c(C)c1 [Amitraz]
IC25 [1, 3]: 26.4 µM

COc1ccc(CCN(C)CCCC(C#N)(c2ccc(OC)c(OC)c2)C(C)C)cc1OC (stereo not drawn) [R(+)-Verapamil (e.g., hydrochloride), R(+)-Verapamil]
IC50 ([1]; Hepatitis C virus, Huh-7, 48 h): 15.7 µM

CC(=O)Nc1ccccc1OCCCCCOCC(=O)Nc1ccccc1 [2′,2″-(Pentamethylenedioxy)diacetanilide]
IC50 [1, 4]: 3.14 µM

Clc1ccc(C(c2ccccc2Cl)C(Cl)Cl)cc1 (stereo not drawn) [Mitotane]
IC25 [1, 3]: 28.1 µM

Vitamin B12
IC50 [1, 5]: 8.28 µM

O=C1CC(=O)c2c(Cl)c(Cl)c(Cl)c(Cl)c21 [UCH-L3 inhibitor]
IC25 (values noted with an asterisk) ([1]; Table 1; inhibition of luciferase activity, 48 hours; in µM): 19.7*

CC(=O)OC[C@H]1O[C@@H]([S-])[C@H](OC(C)=O)[C@@H](OC(C)=O)[C@@H]1OC(C)=O.CCP(CC)CC.[Au+] [Auranofin]
solubility [2]: insoluble in water

N#C/C(=C\c1ccc(O)c(O)c1)C(=O)Nc1ccccc1 [AG-494]
IC50 (HER1-2): 45 µM

CC(=O)Nc1cccc(OCCCCCOc2cccc(NC(C)=O)c2)c1 [3′,3″-(Pentamethylenedioxy)diacetanilide]
IC25 (values noted with an asterisk) [1, 6]: 9.35*

N#C/C(=C\c1ccc(O)c(O)c1)C(=O)NCc1ccccc1 [AG-490]
IC50 [1, 5]: 5.03 µM

N#C/C(=C\c1ccc(O)c(O)c1)C(N)=S [Tyrphostin 47]
IC25 (values noted with an asterisk) [1, 6]: 18.3*

CC(C)NCC(O)COc1ccc(CCOCC2CC2)cc1 (stereo not drawn) [Betaxolol (e.g., hydrochloride), Betaxolol]
IC25 ([1]; Hepatitis C virus, Huh-7, 48 h, read-out: IC25 (values noted with an asterisk)): 29.4 µM
